Measurements: patent publication US20250001107A1, “BREATH-POWERED NASAL DEVICES FOR TREATMENT OF TRAUMATIC BRAIN INJURY (TBI), INCLUDING CONCUSSION, AND METHODS” (Oragenics, Inc., priority 2021, published 2025)

Key:
lipophilicity = type: physicochemical
[1] = blood-brain barrier crossing
[2] = system: Animal models of concussion; experiment: animal models of concussion, behavioral pathology; type: in vivo
[3] = preclinical studies of neuroprotective effects; type: in vivo

CC(=O)[C@@H]1CCC2C3CCC4=CC(=O)CC[C@H]4C3CC[C@]21C (single isomer, unassigned) [ent-19-norprogesterone, ent-19-norpregn-4-ene-3,20-dione]
lipophilicity (lipophilicity): lipophilic
crossing of the blood-brain barrier [1]: can easily cross the blood-brain barrier
behavioral pathology associated with brain injury symptoms [2]: reduces the behavioral pathology associated with brain injury symptoms such as memory impairment, anxiety, and motor/sensory performance
neuroprotective effects compared to related neurosteroids [3]: equivalent, if not superior, neuroprotective effects compared to related neurosteroids
